The values that follow come from patent US11802120B2, “Fused cyclic urea derivatives as CRHR2 antagonist” (RaQualia Pharma Inc., priority 2018, dated 2023).

Molecules are shown by their SMILES.

For the experiment, the target named is T1, human CRHR2-alpha (Homo sapiens, UniProt Q13324).
T1 sequence (Q13324 1-411): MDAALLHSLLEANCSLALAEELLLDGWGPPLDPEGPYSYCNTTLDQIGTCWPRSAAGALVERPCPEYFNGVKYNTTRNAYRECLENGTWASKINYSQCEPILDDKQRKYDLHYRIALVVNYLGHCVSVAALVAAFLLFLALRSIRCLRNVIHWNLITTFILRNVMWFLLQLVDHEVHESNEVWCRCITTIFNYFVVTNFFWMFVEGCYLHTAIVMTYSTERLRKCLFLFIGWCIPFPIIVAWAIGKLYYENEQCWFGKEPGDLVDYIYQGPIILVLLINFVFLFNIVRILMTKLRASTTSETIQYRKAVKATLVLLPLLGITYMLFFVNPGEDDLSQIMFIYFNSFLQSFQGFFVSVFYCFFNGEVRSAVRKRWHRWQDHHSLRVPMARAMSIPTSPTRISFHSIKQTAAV
Description: cAMP functional assay for human CRHR2 (LANCE Ultra cAMP, TR-FRET). In kind it is cell-based. The note with it: CHO-K1 cells expressing human CRHR2-alpha, agonist human urocortin2 at EC80, cAMP; read-out: IC50 against CRHR2. Summed up: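 Inhibition of agonist-driven cAMP was assessed in recombinant CHO-K1 cells at 25° C, using 30 min compound pretreatment and 30 min stimulation with EC80 human urocortin2 (CRHR2) or CRF (CRHR1). IC50 came from dose-response fitting.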
A general note: TR-FRET usually uses a lanthanide donor and a delayed reading to cut background.
Consider `COc1ccc(C#N)c(-n2c(=O)n(C[C@H]3CC[C@H](NC(=O)c4cc(Cl)cnc4C(F)(F)F)CC3)c3ccccc32)c1` [Example 292, 5-chloro-N-((1r,4r)-4-((3-(2-cyano-5-methoxyphenyl)-2-oxo-2,3-dihydro-1H-benzo[d]imidazol-1-yl)methyl)cyclohexyl)-2-(trifluoromethyl)nicotinamide], for which the half-inhibitory concentration (IC50) – broadly, the concentration that gives 50% inhibition – is less than 300 nM.
Turning to `N#Cc1ncccc1-n1c(=O)n(C[C@H]2CC[C@H](NC(=O)c3cc(Cl)cnc3C(F)(F)F)CC2)c2ccccc21` [Example 293, 5-chloro-N-((1r,4r)-4-((3-(2-cyanopyridin-3-yl)-2-oxo-2,3-dihydro-1H-benzo [d]imidazol-1-yl)methyl)cyclohexyl)-2-(trifluoro-methyl)nicotinamide], the IC50 is less than 300 nM.
Regarding `COCCn1nnc2cc(-n3c(=O)n(C[C@H]4CC[C@H](NC(=O)c5cc(Cl)cnc5C)CC4)c4ccccc43)ccc21` [Example 294, 5-chloro-N-((1r,4r)-4-((3-(1-(2-methoxyethyl)-1H-benzo[d][1,2,3]triazol-5-yl)-2-oxo-2,3-dihydro-1H-benzo[d]imidazol-1-yl)methyl)cyclohexyl)-2-methylnicotinamide], the IC50 was less than 300 nM.
As for `CCn1nc2ncc(-n3c(=O)n(C[C@H]4CC[C@H](NC(=O)c5cc(Cl)cnc5C)CC4)c4ccccc43)cc2c1C` [Example 295, 5-chloro-N-((1r,4r)-4-((3-(2-ethyl-3-methyl-2H-pyrazolo[3,4-b]pyridin-5-yl)-2-oxo-2,3-dihydro-1H-benzo[d]imidazol-1-yl)methyl)cyclohexyl)-2-methylnicotinamide], the IC50 is less than 300 nM.
Take `Cc1ncc(Cl)cc1C(=O)N[C@H]1CC[C@H](Cn2c(=O)n(-c3ccn4cncc4c3)c3ccccc32)CC1` [Example 296, 5-chloro-N-((1r,4r)-4-((3-(imidazo[1,5-a]pyridin-7-yl)-2-oxo-2,3-dihydro-1H-benzo[d]imidazol-1-yl)methyl)cyclohexyl)-2-methylnicotinamide]: the IC50 was less than 300 nM.
The value for `CNc1cnc(-n2c(=O)n(C[C@H]3CC[C@H](NC(=O)c4cc(Cl)cnc4C(F)(F)F)CC3)c3ccccc32)cn1` [Example 298, 5-chloro-N-((1r,4r)-4-((3-(5-(methylamino)pyrazin-2-yl)-2-oxo-2,3-dihydro-1H-benzo[d]imidazol-1-yl)methyl)cyclo-hexyl)-2-(trifluoromethyl) nicotinamide] was less than 300 nM.
As to `O=C(N[C@H]1CC[C@H](Cn2c(=O)n(-c3ccc(N[C@H]4CCOC4)nc3)c3ccccc32)CC1)c1cc(Cl)cnc1C(F)(F)F` [Example 299, 5-chloro-N-((1S,4r)-4-((2-oxo-3-(6-(((S)-tetrahydro-furan-3-yl)amino)pyridin-3-yl)-2,3-dihydro-1H-benzo [d]imidazol-1-yl)methyl)cyclohexyl)-2-(trifluoro-methyl)nicotinamide], the IC50 was less than 300 nM.
As to `O=C(N[C@H]1CC[C@H](Cn2c(=O)n(-c3ccc(N[C@@H]4CCOC4)nc3)c3ccccc32)CC1)c1cc(Cl)cnc1C(F)(F)F` [Example 300, 5-chloro-N-((1R,4r)-4-((2-oxo-3-(6-(((R)-tetrahydro-furan-3-yl)amino)pyridin-3-yl)-2,3-dihydro-1H-benzo [d]imidazol-1-yl)methyl)cyclohexyl)-2-(trifluoro-methyl)nicotinamide], the IC50 is less than 300 nM.
With `O=C(N[C@H]1CC[C@H](Cn2c(=O)n(-c3ccc(OCCO)nc3)c3ccccc32)CC1)c1cc(Cl)cnc1C(F)(F)F` [Example 301, 5-chloro-N-((1r,4r)-4-((3-(6-(2-hydroxyethoxy)pyridin-3-yl)-2-oxo-2,3-dihydro-1H-benzo[d]imidazol-1-yl)methyl)cyclohexyl)-2-(trifluoromethyl)nicotinamide], the IC50 was less than 300 nM.
Regarding `Cc1ccc(-n2c(=O)n(C[C@H]3CC[C@H](NC(=O)c4cc(Cl)cnc4C(F)(F)F)CC3)c3cccc(C)c32)cn1` [Example 302, 5-chloro-N-((1r,4r)-4-((4-methyl-3-(6-methylpyridin-3-yl)-2-oxo-2,3-dihydro-1H-benzo[d]imidazol-1-yl)methyl)cyclohexyl)-2-(trifluoromethyl)nicotinamide], the IC50 was less than 300 nM.
For the molecule `Cn1cc(CCn2c(=O)n(C[C@H]3CC[C@H](NC(=O)c4cc(Cl)cnc4C(F)(F)F)CC3)c3ccccc32)cn1` [Example 303, 5-chloro-N-((1r,4r)-4-((3-(2-(1-methyl-1H-pyrazol-4-yl)ethyl)-2-oxo-2,3-dihydro-1H-benzo[d]imidazol-1-yl)methyl)cyclohexyl)-2-(trifluoromethyl)nicotinamide], the half-inhibitory concentration (IC50) is less than 300 nM.
`CCn1nnc2cc(-n3c(=O)n(C[C@H]4CC[C@H](NC(=O)c5cc(Cl)cnc5C)CC4)c4ccccc43)ccc21` [Example 304, 5-chloro-N-((1r,4r)-4-((3-(1-ethyl-1H-benzo[d][1,2,3]triazol-5-yl)-2-oxo-2,3-dihydro-1H-benzo[d]imidazol-1-yl)methyl)cyclo-hexyl)-2-methylnicotinamide]: the IC50 is less than 300 nM.
With `Cc1ncc(Cl)cc1C(=O)N[C@H]1CC[C@H](Cn2c(=O)n(-c3ccc4c(=O)[nH]cnc4c3)c3ccccc32)CC1` [Example 305, 5-chloro-2-methyl-N-((1r,4r)-4-((2-oxo-3-(4-oxo-3,4-dihydroquinazolin-7-yl)-2,3-dihydro-1H-benzol[d]imidazol-1-yl)methyl)cyclohexyl)nicotinamide], the IC50 was less than 300 nM.
As for `Cc1ncc(Cl)cc1C(=O)N[C@H]1CC[C@H](Cn2c(=O)n(-c3ccc(C=O)cc3C#N)c3ccccc32)CC1` [Example 306, 5-chloro-N-((1r,4r)-4-((3-(2-cyano-4-formylphenyl)-2-oxo-2,3-dihydro-1H-benzo[d]imidazol-1-yl)methyl)cyclo-hexyl)-2-methylnicotinamide], the IC50 was less than 300 nM.
For the molecule `Cc1ncc(Cl)cc1C(=O)N[C@H]1CC[C@H](Cn2c(=O)n(-c3cc(Br)ccc3C#N)c3ccccc32)CC1` [Example 307, N-((1r,4r)-4-((3-(5-bromo-2-cyanophenyl)-2-oxo-2,3-dihydro-1H-benzo[d]imidazol-1-yl)methyl)cyclohexyl)-5-chloro-2-methylnicotinamide], the half-maximal inhibitory concentration (IC50) is less than 300 nM.
Turning to `Cc1cc(C#N)c(-n2c(=O)n(C[C@H]3CC[C@H](NC(=O)c4cc(Cl)cnc4C)CC3)c3ccccc32)cn1` [Example 308, 5-chloro-N-((1r,4r)-4-((3-(4-cyano-6-methylpyridin-3-yl)-2-oxo-2,3-dihydro-1H-benzo[d]imidazol-1-yl)methyl)cyclohexyl)-2-methylnicotinamide], the IC50 was less than 300 nM.
In the case of `Cc1ncc(Cl)cc1C(=O)N[C@H]1CC[C@H](Cn2c(=O)n(-c3cccc(N(C)C)c3C#N)c3ccccc32)CC1` [Example 309, 5-choro-N-((1r,4r)-4-((3-(2-cyano-3-(dimethylamino)phenyl)-2-oxo-2,3-dihydro-1H-benzo[d]imidazol-1-yl)methyl)cyclohexyl)-2-methylnicotinamide], the IC50 was less than 300 nM.
Take `COCCNc1cc(C#N)c(-n2c(=O)n(C[C@H]3CC[C@H](NC(=O)c4cc(Cl)cnc4C)CC3)c3ccccc32)cn1` [Example 310, 5-chloro-N-((1r,4r)-4-((3-(4-cyano-6-((2-methoxyethyl)amino)pyridin-3-yl)-2-oxo-2,3-dihydro-1H-benzo[d]imidazol-1-yl)methyl)cyclohexyl)-2-methylnicotinamide]: the IC50 is less than 300 nM.
As to `N#Cc1ccncc1-n1c(=O)n(C[C@H]2CC[C@H](NC(=O)c3cc(Cl)cnc3C(F)(F)F)CC2)c2ccccc21` [Example 311, 5-chloro-N-((1r,4r)-4-((3-(4-cyanopyridin-3-yl)-2-oxo-2,3-dihydro-1H-benzo[d]imidazol-1-yl)methyl)cyclo-hexyl)-2-(trifluoromethyl) nicotinamide], the IC50 was less than 300 nM.
Take `N#Cc1cccnc1-n1c(=O)n(C[C@H]2CC[C@H](NC(=O)c3cc(Cl)cnc3C(F)(F)F)CC2)c2ccccc21` [Example 312, 5-chloro-N-((1r,4r)-4-((3-(3-cyanopyridin-2-yl)-2-oxo-2,3-dihydro-1H-benzo[d]imidazol-1-yl)methyl)cyclo-hexyl)-2-(trifluoromethyl) nicotinamide]: the 50% inhibitory concentration (IC50) is less than 300 nM.
As to `CNC(=O)c1cc(C)c(-n2c(=O)n(C[C@H]3CC[C@H](NC(=O)c4cc(Cl)cnc4C(F)(F)F)CC3)c3ccccc32)cn1` [Example 313, 5-(3-(((1r,4r)-4-(5-chloro-2-(trifluoromethyl)nico-tinamido)cyclohexyl)methyl)-2-oxo-2,3-dihydro-1H-benzo[d]imidazol-1-yl)-N,4-dimethylpicolinamide], the IC50 was less than 300 nM.
Take `O=C(N[C@H]1CC[C@H](Cn2c(=O)n(Cc3cscn3)c3ccccc32)CC1)c1cc(Cl)cnc1C(F)(F)F` [Example 314, 5-chloro-N-((1r,4r)-4-((2-oxo-3-(thiazol-4-ylmethyl)-2,3-dihydro-1H-benzo[d]imidazol-1-yl)methyl)cyclo-hexyl)-2-(trifluoromethyl) nicotinamide]: the IC50 was less than 300 nM.
On to `Cc1ccc(-n2c(=O)n(C[C@H]3CC[C@H](NC(=O)c4cc(Cl)cnc4C(F)(F)F)CC3)c3ccccc32)c(C)n1` [Example 315, 5-chloro-N-((1r,4r)-4-((3-(2,6-dimethylpyridin-3-yl)-2-oxo-2,3-dihydro-1H-benzo [d]imidazol-1-yl)methyl)cyclohexyl)-2-(trifluoro-methyl)nicotinamide], for which the IC50 was less than 300 nM.
